Measured values published in patent publication US20220162215A1, “COMPOSITIONS AND METHODS OF USING THE SAME FOR TREATMENT OF NEURODEGENERATIVE AND MITOCHONDRIAL DISEASE” (MITOKININ, INC., priority 2019, published 2022).
Converted amounts (≈) assume the structure as drawn. Where two headings read alike, the source gives them in different places.

Key:
HeLa MKYP cells [1] = test: Human mitophagy assay (HeLa MKYP, mtKeima FACS, FCCP/oligomycin); assay type: cell-based
Protocol: Briefly, HeLa MKYP cells were plated at 10,000 cells/well in 96 well plates along with compounds at various concentrations. Following 16 hrs of incubation, cells were treated with 1 uM FCCP/oligomycin for 6 hours, then analyzed via FACS for the presence of mitochondria in lysosomes (as determined by an emissions spectrum shift from the pH-sensitive mtKeima tag). Examples are shown in FIG. 1 through FIG. 13 below.

HeLa MKYP cells [2] = test: Toxicity / cell death measured by DAPI staining (take-up); assay type: cell-based; conditions: for Max cell death at 25 uM compound, 1 uM FO / Cell death at 25 μM (no FO): Table 3 Supplement B
Protocol: H2O2 treatment was performed as a control for cell death as measured by DAPI staining.
Briefly, HeLa MKYP cells were plated at 10,000 cells/well in 96 well plates along with compounds at various concentrations. Following 16 hrs of incubation, cells were treated with 1 uM FCCP/oligomycin for 6 hours, then analyzed via FACS for the presence of mitochondria in lysosomes (as determined by an emissions spectrum shift from the pH-sensitive mtKeima tag).

[3] = Visual inspection of crystallization; assay type: physicochemical; set-up: key: 1: yes crystals; 0: no crystals; conditions: Tables 5A-5D
Protocol: (§1) Briefly, the Hela MKYP (Mito-Keima/YFP-Parkin) cells were seeded at 10K cells/well. EP/MTK compounds were added at seeding (cells were still in suspension). The cells were incubated with the EP/MTK compounds for 16 hours, then 1 μM FCCP/oligomycin was added for 6 hours. Prior to harvesting, cells were scored by eye under 20× magnification for the presence or absence of crystalline or aggregated compound, or round cells.

[4] = test system: Hela MKYP (Mito-Keima/YFP-Parkin) cells; test: Inspection of round cells; conditions: Tables 6A-6D
Protocol: as §1

Solubility in 1× PBS = assay type: physicochemical
[5] = Homo sapiens, HeLa, Table 3, read-out: Potency at 1 μM F/O toxin* (EC50 of mitophagy activation)
[6] = Homo sapiens, HeLa, Table 3 Supplement A, as measured in Table 3, read-out: Potency (EC50 Max Mitophagy) (μM)*
[7] = Homo sapiens, HeLa, Table 3 Supplement B, read-out: Mitophagy EC50 (HeLa mKeima assay)
[8] = Table 3, read-out: Potency at 1 μM F/O toxin* (EC50 of mitophagy activation)

SMILES | EC50 (HeLa MKYP cells [1]; [5]) [µM] | Toxicity (% positive for DAPI takeup @ 50 μM) (HeLa MKYP cells [2]; Table 3) [%] | Max cell death at 25 uM compound, 1 uM FO (HeLa MKYP cells [2]) [%] | Cell death at 25 μM (no FO) (HeLa MKYP cells [2]) [%] | solubility (Solubility in 1× PBS) [µM] | EC50 (HeLa MKYP cells [1]; [7]) [µM] | other results
C[C@@H](Nc1ncnc2[nH]c(C(F)(F)F)cc12)c1cncnc1 [Compound 70] | 21.6 | – | – | – | – | – | EC50 (HeLa MKYP cells [1]; [6]): 21.6 µM; Toxicity (% positive for DAPI take-up at 50 μM)* (HeLa MKYP cells [2]; human): 22.95%; Toxicity (% positive for DAPI takeup @ 50 μM) (HeLa MKYP cells [2]; human): 22.9%; Visual inspection of crystallization ([3]; 1.6 μM): 0; Visual inspection of crystallization ([3]; 3.1 μM): 0; Visual inspection of crystallization ([3]; 6.3 μM): 0; Visual inspection of crystallization ([3]; 12.5 μM): 0; Visual inspection of crystallization ([3]; 25.0 μM): 0; Visual inspection of crystallization ([3]; 50.0 μM): 0; Inspection of round cells ([4]; 1.6 μM): 0; Inspection of round cells ([4]; 3.1 μM): 0; Inspection of round cells ([4]; 6.3 μM): 0; Inspection of round cells ([4]; 12.5 μM): 0; Inspection of round cells ([4]; 25.0 μM): 0; Inspection of round cells ([4]; 50.0 μM): 0
CC(Nc1ncnc2[nH]cnc12)c1ccccc1 (centres unmarked) [Compound 71] | 3.5 | 18.2 | – | – | – | – | EC50 (HeLa MKYP cells [1]; [6]): 2.69 µM; Toxicity (% positive for DAPI take-up at 50 μM)* (HeLa MKYP cells [2]; Table 3 Supplement A): 22.24%; Visual inspection of crystallization ([3]; 1.6 μM): 0; Visual inspection of crystallization ([3]; 3.1 μM): 0; Visual inspection of crystallization ([3]; 6.3 μM): 0; Visual inspection of crystallization ([3]; 12.5 μM): 0; Visual inspection of crystallization ([3]; 25.0 μM): 0; Visual inspection of crystallization ([3]; 50.0 μM): 0; Inspection of round cells ([4]; 1.6 μM): 0; Inspection of round cells ([4]; 3.1 μM): 0; Inspection of round cells ([4]; 6.3 μM): 0; Inspection of round cells ([4]; 12.5 μM): 0; Inspection of round cells ([4]; 25.0 μM): 0; Inspection of round cells ([4]; 50.0 μM): 0
O[C@H]1Cc2ccccc2[C@H]1Nc1ncnc2[nH]c(C(F)(F)F)cc12 [Compound 83] | > 50 | 21.2 | 21.2 | 2.75 | 194 (≈ 64.9 µg/mL) | – | Mitophagy EC50 (HeLa mKeima assay) (HeLa MKYP cells [1]; Table 3 Supplement B): Minimal activity
O[C@@H]1Cc2ccccc2[C@@H]1Nc1ncnc2[nH]c(C(F)(F)F)cc12 [Compound 84] | 9 | 35.6 | 35.6 | 5.5 | 194 (≈ 64.9 µg/mL) | 9.04 | –
COc1ccc2c(c1)[C@@H](Nc1ncnc3[nH]c(C(F)(F)F)cc13)CCC2 [Compound 86] | – | 3.2 | – | – | 1.2 (≈ 0.435 µg/mL) | – | EC50 (HeLa MKYP cells [1]; [8]): 4 µM; EC50 (HeLa MKYP cells [1]; Table 3 Supplement B, listed as EP-0037130, read-out: Mitophagy EC50 (HeLa mKeima assay)): 3.99 µM; Max cell death at 25 uM compound, 1 uM FO (HeLa MKYP cells [2]; listed as EP-0037130): 3.18%; Cell death at 25 μM (no FO) (HeLa MKYP cells [2]; listed as EP-0037130): 1.18%
COc1ccc2c(c1)[C@@H](Nc1ncnc3[nH]c(C(F)(F)F)cc13)CCC2 [Compound 87] | – | 5.9 | – | – | 1.2 (≈ 0.435 µg/mL) | – | EC50 (HeLa MKYP cells [1]; [8]): 9.5 µM; EC50 (HeLa MKYP cells [1]; Table 3 Supplement B, listed as EP-0037131, read-out: Mitophagy EC50 (HeLa mKeima assay)): 9.46 µM; Max cell death at 25 uM compound, 1 uM FO (HeLa MKYP cells [2]; listed as EP-0037131): 5.9%; Cell death at 25 μM (no FO) (HeLa MKYP cells [2]; listed as EP-0037131): 1.2%
OC1CCc2ccccc2C1Nc1ncnc2[nH]c(C(F)(F)F)cc12 (centres unmarked) [Compound 91] | > 50 | 12.8 | 12.8 | 3.79 | 1 (≈ 0.348 µg/mL) | – | Mitophagy EC50 (HeLa mKeima assay) (HeLa MKYP cells [1]; Table 3 Supplement B): Minimal activity
CC(=O)N1CCC(Nc2ncnc3[nH]c(C(F)(F)F)cc23)c2ccccc21 (centres unmarked) [Compound 93] | – | 6.9 | 6.92 | 2.69 | 1.32 (≈ 0.495 µg/mL) | 17.3 | –
OC[C@H]1CCc2ccccc2[C@@H]1Nc1ncnc2[nH]c(C(F)(F)F)cc12 [Compound 95] | 5.5 | 30.9 | 30.87 | 9.83 | 9.07 (≈ 3.29 µg/mL) | 5.55 | –
CO[C@@H]1COc2ccccc2[C@@H]1Nc1ncnc2[nH]c(C(F)(F)F)cc12 [Compound 96] | 1.6 | 12.1 | 12.11 | 3.4 | 23.8 (≈ 8.67 µg/mL) | 1.63 | –
CO[C@@H]1COc2ccccc2[C@H]1Nc1ncnc2[nH]c(C(F)(F)F)cc12 [Compound 97] | 6.3 | 10.6 | 10.645 | 2.61 | 16.4 (≈ 5.97 µg/mL) | 6.32 | –
CO[C@H]1COc2ccccc2[C@@H]1Nc1ncnc2[nH]c(C(F)(F)F)cc12 [Compound 98] | – | 15.9 | – | – | 16.3 (≈ 5.94 µg/mL) | – | EC50 (HeLa MKYP cells [1]; Table 3 Supplement B, listed as EP-0037863, read-out: Mitophagy EC50 (HeLa mKeima assay)): 4 µM; Max cell death at 25 uM compound, 1 uM FO (HeLa MKYP cells [2]; listed as EP-0037863): 15.865%; Cell death at 25 μM (no FO) (HeLa MKYP cells [2]; listed as EP-0037863): 3.66%
CO[C@H]1COc2ccccc2[C@H]1Nc1ncnc2[nH]c(C(F)(F)F)cc12 [Compound 99] | 13.3 | 3.6 | 3.555 | 2.49 | 20.9 (≈ 7.61 µg/mL) | 13.3 | –
C[C@H]1CCc2ccccc2[C@H]1Nc1ncnc2[nH]c(C(F)(F)F)cc12 [Compound 101] | – | 12.0 | – | – | – | – | EC50 (HeLa MKYP cells [1]; [8]): > 50 µM; Mitophagy EC50 (HeLa mKeima assay) (HeLa MKYP cells [1]; Table 3 Supplement B): Minimal activity; Max cell death at 25 uM compound, 1 uM FO (HeLa MKYP cells [2]; listed as EP-0037881): 12%; Cell death at 25 μM (no FO) (HeLa MKYP cells [2]; listed as EP-0037881): 6.45%; solubility (Solubility in 1× PBS; aqueous buffer): 7.79 µM (≈ 2.7 µg/mL)
C[C@@H]1CCc2ccccc2[C@H]1Nc1ncnc2[nH]c(C(F)(F)F)cc12 [Compound 103] | 4.2 | 23.8 | 23.8 | 17.9 | 1 (≈ 0.346 µg/mL) | 4.18 | –
CO[C@H]1COc2ccccc2[C@@H]1Nc1ncnc2[nH]c(C(F)(F)F)cc12 [Compound 104] | – | 7.7 | – | – | – | – | EC50 (HeLa MKYP cells [1]; [8]): 1.5 µM; EC50 (HeLa MKYP cells [1]; Table 3 Supplement B, listed as EP-0037962, read-out: Mitophagy EC50 (HeLa mKeima assay)): 1.48 µM; Max cell death at 25 uM compound, 1 uM FO (HeLa MKYP cells [2]; listed as EP-0037962): 7.67%; Cell death at 25 μM (no FO) (HeLa MKYP cells [2]; listed as EP-0037962): 5.15%; solubility (Solubility in 1× PBS; aqueous buffer): 1.31 µM (≈ 0.477 µg/mL)
CO[C@@H]1CCc2ccccc2[C@H]1Nc1ncnc2[nH]c(C(F)(F)F)cc12 [Compound 105] | – | 18.4 | 18.4 | 15.3 | 1 (≈ 0.362 µg/mL) | 22.1 | –
